Values joined by “and” are separate entries in the source; they are usually repeats but may differ in a detail not shown here. Identical values can stand only once.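 Compound exposure: 48 hours, 5 concentrations, 96-well plates. Here, GI50 denotes the concentration required for 50% inhibition of growth. Definition used: TGI = concentration required for complete inhibition of growth.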
Key:
Assay in all cases: NCI anticancer screen, dose series, 48 h; in the data active means GI50 below about 0.43 µM; inactive means the rest
[1] = system: SK-MEL-5 melanoma
[2] = system: SW-620 colon
[3] = system: SF-539 CNS
[4] = system: SK-MEL-2 melanoma
[5] = system: OVCAR-8 ovarian
[6] = system: TK-10 renal
[7] = system: HCT-15 colon
[8] = system: KM12 colon
[9] = system: EKVX NSCLC
[10] = system: NCI-H23 lung
[11] = system: UACC-257 melanoma
[12] = system: OVCAR-4 ovarian
[13] = system: SR leukemia
[14] = system: MCF7 breast
[15] = system: LOX IMVI melanoma
[16] = system: DU-145 prostate
[17] = system: HCC-2998 colon
[18] = system: HL-60(TB) leukemia
[19] = system: OVCAR-5 ovarian
[20] = system: NCI-H460 lung
[21] = system: A549 NSCLC
[22] = system: SK-MEL-28 melanoma
[23] = system: ACHN renal
[24] = system: IGROV1 ovarian
[25] = system: HT29 colon
[26] = system: HOP-62 NSCLC
[27] = system: MDA-N
[28] = system: HS 578T breast
[29] = system: UACC-62 melanoma
[30] = system: PC-3 prostate
[31] = system: SNB-75 CNS
[32] = system: OVCAR-3 ovarian
[33] = system: K-562 leukemia
[34] = system: CAKI-1 renal
[35] = system: MDA-MB-435
[36] = system: HOP-92 NSCLC
[37] = system: M14 melanoma
[38] = system: BT-549 breast
[39] = system: MOLT-4 leukemia
[40] = system: MDA-MB-231 breast
[41] = system: MALME-3M melanoma
[42] = system: T-47D breast
[43] = system: 786-0 renal
[44] = system: SF-268 CNS
[45] = system: SK-OV-3 ovarian
[46] = system: UO-31 renal
[47] = system: SF-295 CNS
[48] = system: COLO 205 colon
[49] = system: SN12C renal
[50] = system: SNB-19 CNS
[51] = system: RPMI-8226 leukemia
[52] = system: NCI/ADR-RES ovarian
[53] = system: U251 CNS
[54] = system: HCT-116 colon
[55] = system: NCI-H522 lung
[56] = system: RXF 393 renal
[57] = system: NCI-H226 lung
[58] = system: CCRF-CEM leukemia

O=C1NNC(=O)c2ccccc2SSc2ccccc2C(=O)NNC(=O)c2ccccc2SSc2ccccc21
50 µM and > 100 µM: TGI [1] | TGI [2] | TGI [3] | TGI [4] | TGI [5] | TGI [6] | TGI [8] | TGI [9] | TGI [11] | TGI [12] | TGI [15] | TGI [20] | TGI [21] | TGI [22] | TGI [23] | TGI [24] | TGI [26] | TGI [27] | TGI [29] | TGI [30] | TGI [32] | TGI [33] | TGI [34] | TGI [35] | TGI [38] | TGI [40] | TGI [45] | TGI [47] | TGI [49] | TGI [50] | TGI [52] | TGI [53] | TGI [54]
> 50 µM: TGI [56] | TGI [57]
50 µM and 17.3 µM: TGI [39]
42.6 µM and > 100 µM: TGI [41]
> 100 µM: TGI [14] | TGI [17] | TGI [28] | TGI [36] | TGI [46]
50 µM and 33.6 µM: TGI [16]
50 µM and 14.5 µM: TGI [55]
50 µM: TGI [31] | TGI [48] | TGI [51]
50 µM and 59.8 µM: TGI [10]
23.8 µM: TGI [18]
35 µM and 11.8 µM: TGI [58]
inactive: GI50 [1] 42.1 µM | GI50 [2] 6.81 µM | GI50 [3] 2.87 µM | GI50 [4] 4.93 µM | GI50 [5] 15.4 µM | GI50 [6] 70.9 µM | GI50 [7] 4.61 µM | GI50 [8] 42.3 µM | GI50 [9] 10.5 µM | GI50 [10] 7.63 µM | GI50 [11] 45.2 µM | GI50 [13] 3.79 µM | GI50 [15] 7.02 µM | GI50 [16] 5 µM | GI50 [20] 31 µM | GI50 [21] 11.3 µM | GI50 [22] 23.1 µM | GI50 [23] 7.34 µM | GI50 [24] 6.66 µM | GI50 [25] 20.1 µM | GI50 [27] 11.9 µM | GI50 [28] > 100 µM | GI50 [29] 8.34 µM | GI50 [30] 24.7 µM | GI50 [33] 3.76 µM | GI50 [34] 18.1 µM | GI50 [35] 16.3 µM | GI50 [36] > 100 µM | GI50 [37] 6.28 µM | GI50 [38] 14.1 µM | GI50 [40] 11.4 µM | GI50 [41] 25.9 µM | GI50 [42] 2.34 µM | GI50 [43] 10 µM | GI50 [44] 9.81 µM | GI50 [45] > 100 µM | GI50 [47] 16.3 µM | GI50 [49] 17 µM | GI50 [50] 6.35 µM | GI50 [52] 14 µM | GI50 [53] 7.11 µM | GI50 [54] 5.05 µM | GI50 [55] 3.43 µM | GI50 [58] 1.99 µM
30.2 µM and > 100 µM: TGI [44]
50 µM and 26.6 µM: TGI [43]
50 µM and 8.18 µM: TGI [42]
50 µM and 72.1 µM: TGI [25]
50 µM and 32.5 µM: TGI [37]
50 µM and 37.1 µM: TGI [7]
50 µM and 32.7 µM: TGI [13]
50 µM and 73.8 µM: TGI [19]
